The results in this text go back to US9878999B2, “Proteasome chymotrypsin-like inhibition using PI-1833 analogs” (H. Lee Moffitt Cancer Center and Research Institute, Inc., priority 2011, dated 2018).

In the assay the target is CT-L activity of purified 20S proteasome (Homo sapiens, UniProt P20618+P28074). Briefly: in vitro CT-L activity of purified 20S proteasome. It counts as biochemical. The conditions noted are these: for inhibition at 10 µM: Table 5, @ 10 μM, read-out: Screening Results (% Inhibition @ 10 μM) Chymotrypsin-like; for fold improved CT-L activity: compared to the hit 1 (PI-1833); for fold loss of CT-L activity: compared to 11ad or 11ae.

Setting [1] is: Table 5, read-out: IC50 (μM) Chymotrypsin-like.
[2] abbreviates: Table 3, read-out: IC50 (μM) CT-L.
[3] abbreviates: Table 1, read-out: IC50 (μM) Chymotrypsin-like activity.

Where “and” joins values, the source holds several entries; their conditions need not be identical. Equal entries are not always repeated. Where two headings read alike, the source gives them in different places.

With `Cc1ccc(-c2noc(CN(C(=O)COc3ccc(C(C)C)cc3)C(C)C)n2)cc1`, under setting [1], the IC50 was found to be 4.12 ± 0.09 µM. On to `CC(C)c1ccc(OCC(=O)N(Cc2nc(-c3ccc(Cl)cc3)no2)C(C)C)cc1`, for which the IC50 under setting [1] turned out to be 5.13 ± 0.09 µM. As for `CC(C)N(Cc1nc(-c2ccccc2)no1)C(=O)CCl`, the inhibition at 10 µM is -53 ± 23.4%. Regarding `Cc1ccc(OC(C)C(=O)N(Cc2nc(-c3ccccc3)no2)C(C)C)cc1` (stereo not shown), the inhibition at 10 µM amounted to 92.43 ± 0.82%. For the same compound, under setting [1], the IC50 was found to be 0.92 ± 0.21 µM. As to `Cc1ccc(OC(C)C(=O)N(Cc2nc(-c3cccnc3)no2)C(C)C)cc1` (stereo not shown), the inhibition at 10 µM was 92.9 ± 1.7%. For the same compound, the IC50 under setting [1] worked out at 0.38 ± 0.099 µM. Regarding `Cc1ccc(OCC(=O)N(Cc2coc(-c3ccccc3)n2)C(C)C)cc1`, the IC50 under setting [1] came out at 0.14 ± 0.003 µM. The same measure, in the same setting: then `CCCc1ccc(O[C@H](C)C(=O)N(Cc2nc(-c3cccnc3)no2)C(C)C)cc1`, with 2.39 µM and 1.99 µM. For the compound `Cc1ccc(OC(C)C(=O)N(Cc2nc(-c3cccnc3)no2)C(C)C)cc1` (racemic) [16a], the IC50 under setting [2] was determined as 0.38 ± 0.099 µM and the IC50 (read-out: IC50, in vitro CT-L) worked out at 0.318 µM. For `CCCc1ccc(OC(C)C(=O)N(Cc2nc(-c3cccnc3)no2)C(C)C)cc1` (racemic) [16d, N-Isopropyl-2-(4-propylphenoxy)-N-((3-(pyridine-3-yl)-1,2,4-oxadiazol-5-yl)methyl)propanamide], the IC50 (read-out: IC50, in vitro CT-L) amounted to 0.289 µM. In the case of `CCCc1ccc(OC(C)C(=O)N(Cc2nc(-c3cccnc3)no2)C(C)C)cc1` (racemic) [drawing 177], the IC50 under setting [1] turned out to be 0.289 µM. `CCCc1ccc(O[C@@H](C)C(=O)N(Cc2nc(-c3cccnc3)no2)C(C)C)cc1` (single isomer, unassigned) [16f]: the half-maximal inhibitory concentration (IC50) under setting [2] stood at 2.18 ± 0.28 µM. Turning to `CCCc1ccc(O[C@@H](C)C(=O)N(Cc2nc(-c3cccnc3)no2)C(C)C)cc1` (single isomer, unassigned) [drawing 176], under setting [1], the IC50 was determined as 0.075 µM. On to `Cc1ccc(-c2noc(CN(C(=O)COc3ccc(C(F)(F)F)cc3)C(C)C)n2)cc1` [11a, N-Isopropyl-N-((3-p-tolyl-1,2,4-oxadiazol-5-yl)methyl)-2-(4-(trifluoromethyl)phenoxy)acetamide], for which the IC50 was 1.08 ± 0.33 µM under setting [3] and approximately 1 µM (read-out: IC50, in vitro CT-L). On to `CCc1ccc(OCC(=O)N(Cc2nc(-c3ccccc3)no2)C(C)C)cc1` [11aa, 2-(4-Ethylphenoxy)-N-isopropyl-N-((3-phenyl-1,2,4-oxadiazol-5-yl)methyl)acetamide], for which the “fold improved CT-L activity” value was determined as 2 fold. Also, the IC50 under setting [3] was determined as 0.267 ± 0.05 µM. In addition, the half-maximal inhibitory concentration (IC50) (read-out: IC50, in vitro CT-L) came out at 0.26 ± 0.05 µM. Take `CCc1ccc(OCC(=O)N(Cc2nc(-c3cccnc3)no2)C(C)C)cc1` [11ab, 2-(4-Ethylphenoxy)-N-isopropyl-N-((3-pyridin-3-yl)1,2,4-oxadiazol-5-yl)methylacetamide]: the “fold improved CT-L activity” value was found to be 6 fold. Further, the concentration for half-maximal inhibition (IC50) (read-out: IC50, in vitro CT-L) worked out at 0.099 ± 0.03 µM.

As for `CC(C)N(Cc1nc(-c2cccnc2)no1)C(=O)COc1ccccc1` [11ac, N-Isopropyl-2-phenoxy-N-((3-(pyridine-3-yl)-1,2,4-oxadiazol-5-yl)methyl)acetamide], the IC50 (read-out: IC50, in vitro CT-L) turned out to be 3.12 ± 1.11 µM. As for `CCCCc1ccc(OCC(=O)N(Cc2nc(-c3cccnc3)no2)C(C)C)cc1` [11ae, 2-(4-Butylphenoxy)-N-isopropyl-N-((3-(pyridine-3-yl)-1,2,4-oxadiazol-5-yl)methyl)acetamide], the “fold improved CT-L activity” value was 20 fold. In addition, for the setting “read-out: IC50, in vitro CT-L”, the IC50 was determined as 0.039 µM.

With `CCCCCc1ccc(OCC(=O)N(Cc2nc(-c3cccnc3)no2)C(C)C)cc1` [11af], the “fold loss of CT-L activity” value turned out to be 4 fold. The IC50 under setting [3] was found to be 0.121 ± 0.04 µM. `CCCCCCc1ccc(OCC(=O)N(Cc2nc(-c3cccnc3)no2)C(C)C)cc1` [11ag, 2-(4-Hexylphenoxy)-N-isopropyl-N-((3-(pyridine-3-yl)-1,2,4-oxadiazol-5-yl)methyl)acetamide]: the “fold loss of CT-L activity” value worked out at 13 fold. The IC50 under setting [3] turned out to be 0.428 ± 0.038 µM. Consider `CC(C)N(Cc1nc(-c2cccnc2)no1)C(=O)COc1ccc(C2CCCCC2)cc1` [11ah], for which the “fold loss of CT-L activity” value is 40 fold. Under setting [3], the IC50 stood at 1.36 ± 0.184 µM. On to `CC(C)c1ccc(OCC(=O)N(Cc2nc(-c3cccnc3)no2)C(C)C)cc1` [11ai, N-Isopropyl-2-(4-isopropylphenoxy)-N-((3-(pyridin-3-yl)-1,2,4-oxadiazol-5-yl)methyl)acetamide], for which the “CT-L inhibitory activity, in words” value was “failed to improve the CT-L activity”. Besides, the IC50 under setting [3] stood at 0.436 ± 0.073 µM.

As to `CC(C)N(Cc1nc(-c2cccnc2)no1)C(=O)COc1ccc(C(C)(C)C)cc1` [11aj, N-Isopropyl-2-(4-tert-butylphenoxy)-N-((3-(pyridin-3-yl)-1,2,4-oxadiazol-5-yl)methyl)acetamide], the “CT-L inhibitory activity, in words” value is “failed to improve the CT-L activity” and the “fold loss of CT-L activity” value is reported as more than 35 fold. Besides, the IC50 under setting [3] was 65.9 ± 33.7 µM. Regarding `CC(C)Cc1ccc(OCC(=O)N(Cc2nc(-c3cccnc3)no2)C(C)C)cc1` [11ak, N-Isopropyl-2-(4-isobutylphenoxy)-N-((3-(pyridin-3-yl)-1,2,4-oxadiazol-5-yl)methyl)acetamide], the “CT-L inhibitory activity, in words” value is “failed to improve the CT-L activity”. Further, the IC50 under setting [3] was determined as 0.14 ± 0.052 µM. Consider `CCCc1ccc(OCC(=O)N(Cc2nc(-c3cncnc3)no2)C(C)C)cc1` [11al], for which the IC50 (read-out: IC50, in vitro CT-L) came out at 0.032 µM. In the case of `CCCc1ccc(OCC(=O)N(Cc2nc(-c3cnccn3)no2)C(C)C)cc1` [11am, N-Isopropyl-2-(4-propylphenoxy)-N-((3-(pyrazin-2-yl)-1,2,4-oxadiazol-5-yl)methyl)acetamide], the “fold loss of CT-L activity” value worked out at 3 fold. Besides, the IC50 under setting [3] came to 0.105 ± 0.031 µM.

On to `CCCCc1ccc(OCC(=O)N(Cc2nc(-c3cnccn3)no2)C(C)C)cc1` [11an], for which the “fold loss of CT-L activity” value was found to be 3 fold. Moreover, the IC50 under setting [3] was 0.107 ± 0.013 µM. As to `CCCc1ccc(OCC(=O)N(Cc2nc(-c3ncccn3)no2)C(C)C)cc1` [11ao, N-Isopropyl-2-(4-propylphenoxy)-N-((3-(pyrimidin-2-yl)-1,2,4-oxadiazol-5-yl)methyl)acetamide], the “fold loss of CT-L activity” value is 40 fold. The IC50 under setting [3] came to 1.27 ± 0.226 µM. In addition, where the note is “read-out: IC50, in vitro CT-L”, the IC50 was 1.26 µM. Take `CC(C)N(Cc1nc(-c2ccccc2)no1)C(=O)COc1ccc(C(=O)OC(C)(C)C)cc1` [11aq, tert-Butyl 4-(2-(isopropyl((3-phenyl-1,2,4-oxadiazol-5-yl)methyl)amino)-2-oxoethoxy)benzoate]: under setting [3], the IC50 is more than 10 µM.

Turning to `CC(C)N(Cc1nc(-c2ccccc2)no1)C(=O)COc1ccc(C(F)(F)F)cc1` [11b, N-Isopropyl-N-((3-phenyl-1,2,4-oxadiazol-5-yl)methyl)-2-(4-(trifluoromethyl)phenoxy)acetamide], the IC50 by setting is: under setting [3], 0.43 ± 0.12 µM; (read-out: IC50, in vitro CT-L) 0.3 to 0.5 µM. For the compound `CC(C)N(Cc1nc(-c2ccc(C(F)(F)F)cc2)no1)C(=O)COc1ccc(C(F)(F)F)cc1` [11c, N-Isopropyl-2-(4-(trifluoromethyl)phenoxy)-N-((3-(4-(trifluoromethyl)phenyl)-1,2,4-oxadiazol-5-yl)methyl)acetamide], the IC50 (read-out: IC50, in vitro CT-L) amounted to 2.53 µM. Regarding `CC(C)N(Cc1nc(-c2ccc(Cl)cc2)no1)C(=O)COc1ccc(C(F)(F)F)cc1` [11d, N-((3-(4-chlorophenyl)-1,2,4-oxadiazol-5-yl)methyl)-N-isopropyl-2-(4-(trifluoromethyl)phenoxy)acetamide], the IC50 is, setting by setting: under setting [3], 0.857 ± 0.35 µM; (read-out: IC50, in vitro CT-L) approximately 1 µM.
